From the NIST ThermoML archive (doi:10.1021/je100832h)
± gives the expanded uncertainty stated by the source.

How the values were obtained:
[1] = xn = mol fraction of the nth substance listed; details: 101.32 kPa, Liquid, Vibrating tube method
[2] = excess molar enthalpy (molar enthalpy of mixing); xn = mol fraction of the nth substance listed; details: 101 kPa, Liquid, Calvet calorimetry

## CCOC(C)=O [ethyl acetate] + CCCCCC
[1]; 291.15 K, x1 = 0.0165
  mass density: 663.7 ± 0.82 kg/m3
[1]; 291.15 K, x1 = 0.0655
  mass density: 671.62 ± 0.84 kg/m3
[1]; 291.15 K, x1 = 0.1077
  mass density: 678.72 ± 0.88 kg/m3
[1]; 291.15 K, x1 = 0.1823
  mass density: 692.02 ± 0.9 kg/m3
[1]; 291.15 K, x1 = 0.1962
  mass density: 694.54 ± 0.9 kg/m3
[1]; 291.15 K, x1 = 0.2716
  mass density: 709.09 ± 0.97 kg/m3
[1]; 291.15 K, x1 = 0.3518
  mass density: 725.37 ± 1 kg/m3
[1]; 291.15 K, x1 = 0.4166
  mass density: 739.37 ± 1.1 kg/m3
[1]; 291.15 K, x1 = 0.5519
  mass density: 770.91 ± 1.1 kg/m3
[1]; 291.15 K, x1 = 0.6225
  mass density: 788.69 ± 1.2 kg/m3
[1]; 291.15 K, x1 = 0.6795
  mass density: 803.74 ± 1.3 kg/m3
[1]; 291.15 K, x1 = 0.7429
  mass density: 821.35 ± 1.3 kg/m3
[1]; 291.15 K, x1 = 0.8048
  mass density: 839.41 ± 1.4 kg/m3
[1]; 291.15 K, x1 = 0.898
  mass density: 868.3 ± 1.4 kg/m3
[1]; 291.15 K, x1 = 0.9604
  mass density: 888.98 ± 1.5 kg/m3
[1]; 291.15 K, x1 = 0.9833
  mass density: 896.93 ± 1.6 kg/m3
[1]; 291.15 K, x1 = 1
  mass density: 902.88 ± 0.73 kg/m3
[1]; 298.15 K, x1 = 0.0704
  mass density: 666.2 ± 0.84 kg/m3
[1]; 298.15 K, x1 = 0.127
  mass density: 675.7 ± 0.87 kg/m3
[1]; 298.15 K, x1 = 0.193
  mass density: 687.4 ± 0.9 kg/m3
[1]; 298.15 K, x1 = 0.2383
  mass density: 695.9 ± 0.93 kg/m3
[1]; 298.15 K, x1 = 0.2909
  mass density: 706.1 ± 0.97 kg/m3
[1]; 298.15 K, x1 = 0.3466
  mass density: 717.4 ± 1 kg/m3
[1]; 298.15 K, x1 = 0.444
  mass density: 738.3 ± 1 kg/m3
[1]; 298.15 K, x1 = 0.4935
  mass density: 749.5 ± 1.1 kg/m3
[1]; 298.15 K, x1 = 0.5355
  mass density: 759.4 ± 1.1 kg/m3
[1]; 298.15 K, x1 = 0.5869
  mass density: 772 ± 1.2 kg/m3
[1]; 298.15 K, x1 = 0.6255
  mass density: 781.8 ± 1.2 kg/m3
[1]; 298.15 K, x1 = 0.7012
  mass density: 801.9 ± 1.2 kg/m3
[1]; 298.15 K, x1 = 0.7532
  mass density: 816.4 ± 1.3 kg/m3
[1]; 298.15 K, x1 = 0.8292
  mass density: 838.8 ± 1.4 kg/m3
[1]; 298.15 K, x1 = 0.8612
  mass density: 848.7 ± 1.4 kg/m3
[1]; 298.15 K, x1 = 0.9233
  mass density: 868.5 ± 1.5 kg/m3
[1]; 298.15 K, x1 = 0.9469
  mass density: 876.3 ± 1.5 kg/m3
[1]; 298.15 K, x1 = 1
  mass density: 894.4 ± 0.72 kg/m3
[1]; 318.15 K, x1 = 0.0336
  mass density: 641.5 ± 0.79 kg/m3
[1]; 318.15 K, x1 = 0.0764
  mass density: 648.1 ± 0.82 kg/m3
[1]; 318.15 K, x1 = 0.1448
  mass density: 659.3 ± 0.86 kg/m3
[1]; 318.15 K, x1 = 0.2606
  mass density: 679.9 ± 0.93 kg/m3
[1]; 318.15 K, x1 = 0.276
  mass density: 682.8 ± 0.93 kg/m3
[1]; 318.15 K, x1 = 0.3316
  mass density: 693.5 ± 0.97 kg/m3
[1]; 318.15 K, x1 = 0.3976
  mass density: 707 ± 1 kg/m3
[1]; 318.15 K, x1 = 0.4495
  mass density: 718.1 ± 1 kg/m3
[1]; 318.15 K, x1 = 0.5054
  mass density: 730.6 ± 1.1 kg/m3
[1]; 318.15 K, x1 = 0.5551
  mass density: 742.2 ± 1.1 kg/m3
[1]; 318.15 K, x1 = 0.6085
  mass density: 755.1 ± 1.2 kg/m3
[1]; 318.15 K, x1 = 0.7048
  mass density: 779.9 ± 1.2 kg/m3
[1]; 318.15 K, x1 = 0.7523
  mass density: 792.9 ± 1.3 kg/m3
[1]; 318.15 K, x1 = 0.7984
  mass density: 806 ± 1.3 kg/m3
[1]; 318.15 K, x1 = 0.8419
  mass density: 818.8 ± 1.4 kg/m3
[1]; 318.15 K, x1 = 0.8854
  mass density: 832.2 ± 1.4 kg/m3
[1]; 318.15 K, x1 = 0.9305
  mass density: 846.4 ± 1.5 kg/m3
[1]; 318.15 K, x1 = 1
  mass density: 869.6 ± 0.69 kg/m3
[1]; 328.15 K, x1 = 0.0433
  mass density: 633.2 ± 0.78 kg/m3
[1]; 328.15 K, x1 = 0.0847
  mass density: 639.6 ± 0.82 kg/m3
[1]; 328.15 K, x1 = 0.1691
  mass density: 653.4 ± 0.85 kg/m3
[1]; 328.15 K, x1 = 0.2349
  mass density: 664.88 ± 0.88 kg/m3
[1]; 328.15 K, x1 = 0.307
  mass density: 678 ± 0.92 kg/m3
[1]; 328.15 K, x1 = 0.3708
  mass density: 690.6 ± 0.97 kg/m3
[1]; 328.15 K, x1 = 0.4318
  mass density: 703.25 ± 1 kg/m3
[1]; 328.15 K, x1 = 0.4918
  mass density: 716.3 ± 1.1 kg/m3
[1]; 328.15 K, x1 = 0.5567
  mass density: 731.2 ± 1.1 kg/m3
[1]; 328.15 K, x1 = 0.6075
  mass density: 743.4 ± 1.1 kg/m3
[1]; 328.15 K, x1 = 0.6523
  mass density: 754.6 ± 1.2 kg/m3
[1]; 328.15 K, x1 = 0.7238
  mass density: 773.4 ± 1.2 kg/m3
[1]; 328.15 K, x1 = 0.7577
  mass density: 782.7 ± 1.3 kg/m3
[1]; 328.15 K, x1 = 0.8221
  mass density: 800.9 ± 1.3 kg/m3
[1]; 328.15 K, x1 = 0.8723
  mass density: 815.8 ± 1.4 kg/m3
[1]; 328.15 K, x1 = 0.9135
  mass density: 828.6 ± 1.4 kg/m3
[1]; 328.15 K, x1 = 0.9832
  mass density: 851.3 ± 1.6 kg/m3
[1]; 328.15 K, x1 = 1
  mass density: 857.17 ± 0.68 kg/m3
[2]; 291.15 K, x1 = 0.0535
  excess molar enthalpy: 0.0674 ± 0.00167 kcal/mol
[2]; 291.15 K, x1 = 0.1148
  excess molar enthalpy: 0.139 ± 0.00311 kcal/mol
[2]; 291.15 K, x1 = 0.1974
  excess molar enthalpy: 0.215 ± 0.00454 kcal/mol
[2]; 291.15 K, x1 = 0.2736
  excess molar enthalpy: 0.275 ± 0.00598 kcal/mol
[2]; 291.15 K, x1 = 0.3368
  excess molar enthalpy: 0.309 ± 0.00669 kcal/mol
[2]; 291.15 K, x1 = 0.3855
  excess molar enthalpy: 0.33 ± 0.00717 kcal/mol
[2]; 291.15 K, x1 = 0.4401
  excess molar enthalpy: 0.344 ± 0.00741 kcal/mol
[2]; 291.15 K, x1 = 0.4918
  excess molar enthalpy: 0.348 ± 0.00741 kcal/mol
[2]; 291.15 K, x1 = 0.5333
  excess molar enthalpy: 0.345 ± 0.00741 kcal/mol
[2]; 291.15 K, x1 = 0.5714
  excess molar enthalpy: 0.341 ± 0.00717 kcal/mol
[2]; 291.15 K, x1 = 0.6212
  excess molar enthalpy: 0.329 ± 0.00693 kcal/mol
[2]; 291.15 K, x1 = 0.6753
  excess molar enthalpy: 0.309 ± 0.00669 kcal/mol
[2]; 291.15 K, x1 = 0.722
  excess molar enthalpy: 0.282 ± 0.00598 kcal/mol
[2]; 291.15 K, x1 = 0.7805
  excess molar enthalpy: 0.247 ± 0.00526 kcal/mol
[2]; 291.15 K, x1 = 0.8412
  excess molar enthalpy: 0.199 ± 0.0043 kcal/mol
[2]; 291.15 K, x1 = 0.8816
  excess molar enthalpy: 0.153 ± 0.00335 kcal/mol
[2]; 291.15 K, x1 = 0.9343
  excess molar enthalpy: 0.0937 ± 0.00215 kcal/mol
[2]; 291.15 K, x1 = 0.9802
  excess molar enthalpy: 0.0349 ± 0.000956 kcal/mol
[2]; 298.15 K, x1 = 0.0668
  excess molar enthalpy: 0.0865 ± 0.00191 kcal/mol
[2]; 298.15 K, x1 = 0.1168
  excess molar enthalpy: 0.137 ± 0.00311 kcal/mol
[2]; 298.15 K, x1 = 0.192
  excess molar enthalpy: 0.21 ± 0.00454 kcal/mol
[2]; 298.15 K, x1 = 0.2621
  excess molar enthalpy: 0.261 ± 0.0055 kcal/mol
[2]; 298.15 K, x1 = 0.3186
  excess molar enthalpy: 0.289 ± 0.00621 kcal/mol
[2]; 298.15 K, x1 = 0.3929
  excess molar enthalpy: 0.319 ± 0.00693 kcal/mol
[2]; 298.15 K, x1 = 0.439
  excess molar enthalpy: 0.329 ± 0.00693 kcal/mol
[2]; 298.15 K, x1 = 0.495
  excess molar enthalpy: 0.326 ± 0.00693 kcal/mol
[2]; 298.15 K, x1 = 0.5309
  excess molar enthalpy: 0.324 ± 0.00693 kcal/mol
[2]; 298.15 K, x1 = 0.5767
  excess molar enthalpy: 0.315 ± 0.00669 kcal/mol
[2]; 298.15 K, x1 = 0.6196
  excess molar enthalpy: 0.304 ± 0.00645 kcal/mol
[2]; 298.15 K, x1 = 0.6757
  excess molar enthalpy: 0.286 ± 0.00621 kcal/mol
[2]; 298.15 K, x1 = 0.7368
  excess molar enthalpy: 0.255 ± 0.0055 kcal/mol
[2]; 298.15 K, x1 = 0.7954
  excess molar enthalpy: 0.215 ± 0.00454 kcal/mol
[2]; 298.15 K, x1 = 0.8424
  excess molar enthalpy: 0.17 ± 0.00359 kcal/mol
[2]; 298.15 K, x1 = 0.8998
  excess molar enthalpy: 0.117 ± 0.00263 kcal/mol
[2]; 298.15 K, x1 = 0.9521
  excess molar enthalpy: 0.0605 ± 0.00143 kcal/mol
[2]; 318.15 K, x1 = 0.076
  excess molar enthalpy: 0.11 ± 0.00239 kcal/mol
[2]; 318.15 K, x1 = 0.1524
  excess molar enthalpy: 0.195 ± 0.0043 kcal/mol
[2]; 318.15 K, x1 = 0.2306
  excess molar enthalpy: 0.259 ± 0.0055 kcal/mol
[2]; 318.15 K, x1 = 0.3029
  excess molar enthalpy: 0.3 ± 0.00645 kcal/mol
[2]; 318.15 K, x1 = 0.3659
  excess molar enthalpy: 0.325 ± 0.00693 kcal/mol
[2]; 318.15 K, x1 = 0.4345
  excess molar enthalpy: 0.339 ± 0.00717 kcal/mol
[2]; 318.15 K, x1 = 0.488
  excess molar enthalpy: 0.338 ± 0.00717 kcal/mol
[2]; 318.15 K, x1 = 0.5143
  excess molar enthalpy: 0.335 ± 0.00717 kcal/mol
[2]; 318.15 K, x1 = 0.5368
  excess molar enthalpy: 0.333 ± 0.00717 kcal/mol
[2]; 318.15 K, x1 = 0.5617
  excess molar enthalpy: 0.331 ± 0.00717 kcal/mol
[2]; 318.15 K, x1 = 0.6098
  excess molar enthalpy: 0.32 ± 0.00693 kcal/mol
[2]; 318.15 K, x1 = 0.6645
  excess molar enthalpy: 0.301 ± 0.00645 kcal/mol
[2]; 318.15 K, x1 = 0.7202
  excess molar enthalpy: 0.273 ± 0.00598 kcal/mol
[2]; 318.15 K, x1 = 0.7788
  excess molar enthalpy: 0.235 ± 0.00502 kcal/mol
[2]; 318.15 K, x1 = 0.8406
  excess molar enthalpy: 0.184 ± 0.00406 kcal/mol
[2]; 318.15 K, x1 = 0.9004
  excess molar enthalpy: 0.125 ± 0.00263 kcal/mol
[2]; 318.15 K, x1 = 0.9547
  excess molar enthalpy: 0.0638 ± 0.00143 kcal/mol
